# Like-named read-outs stand apart in the source and are kept apart here.
# What was measured:
# CYP1A2 = target: T1, CYP1A2 (Homo sapiens, UniProt P05177); assay: CYP-direct inhibition, CYP1A2; assay type: in vitro ADME
# T1 construct: from tissue; host or cells: pooled human liver microsomes
# T1 sequence (P05177 1-516): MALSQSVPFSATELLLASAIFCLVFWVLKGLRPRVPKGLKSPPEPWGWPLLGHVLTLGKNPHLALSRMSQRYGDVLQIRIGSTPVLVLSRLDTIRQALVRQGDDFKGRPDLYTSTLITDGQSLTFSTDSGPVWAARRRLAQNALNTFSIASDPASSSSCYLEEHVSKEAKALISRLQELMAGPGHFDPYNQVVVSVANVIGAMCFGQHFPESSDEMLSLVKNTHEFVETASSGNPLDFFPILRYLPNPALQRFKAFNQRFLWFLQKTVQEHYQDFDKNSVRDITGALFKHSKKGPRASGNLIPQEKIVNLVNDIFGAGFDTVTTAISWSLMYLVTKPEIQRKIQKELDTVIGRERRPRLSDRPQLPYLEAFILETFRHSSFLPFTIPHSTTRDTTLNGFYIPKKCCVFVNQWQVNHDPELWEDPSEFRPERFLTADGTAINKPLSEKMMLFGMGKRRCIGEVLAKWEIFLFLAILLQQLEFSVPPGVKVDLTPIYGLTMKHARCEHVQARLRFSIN
# Protocol: (§1) Many drugs inhibit cytochrome P450 enzymes to cause clinically significant changes in the pharmacokinetics of other drugs. In vitro cytochrome P450 inhibition, can provide crucial information in evaluating potential clinical drug-drug interactions and is useful for focusing in vivo tests to areas of concern. The cytochrome P450 inhibition assay was developed by preparing a working cocktail solution consisting of six probe substrates 10 μM ethoxy-resorufin (CYP1A2), 100 μM rosiglitazone (CYP2C8), 50 μM diclofenac (CYP2C9), 300 μM S-mephenytoin (CYP2C19), 50 μM dextromethorphan (CYP2D6), and 20 μM midazolam (CYP3A4). A mixture solution consists of 140 uL of 0.286 mg/mL of pooled human liver microsome working solution and 20 uL working solutions of test articles, standard control inhibitors, or positive control placebo and 20 uL of substrate cocktail mixture working solution was prepared. The mixture solution was pre-warm in a gentle shaking bath at 37±2° C. for 5 minutes. The enzymatic reaction started by adding 20 uL of NRS working solution to the mixture solution and incubated for 10 minutes at 37±2° C. To stop the reaction, an addition of 400 μL cold stop solution (acetonitrile containing 50 ng/mL Tolbutamide as an internal standard (I.Std.) was added to the mixture solution. The final concentration of test article, inhibitors, substrates, and cofactors are noted in Table 0.1 below. Two individual samples were prepared for each test compound. The extracted samples were vortexed and then centrifuged at 4500 rpm for 7 minutes using Eppendorf Centrifuge 5910R. 200 uL of supernatant was diluting with 200 uL of 50% Methanol into 96-DW plate for LC/MS/MS analysis
# (§2) Concentration-response plots are used to determine the effects of an inhibitor on an enzymatic reaction. A typical concentration-response plot provides fractional activity (Y axis) is plotted as a function of log inhibitor concentration (X axis). The data are fitted using a standard Sigmoidal dose-response equation which is also called a […] logistic equation. The concentration of compound that results in 50% inhibition of maximal activity is termed as the IC50 (inhibitor concentration yielding 50% inhibition). IC50 value is calculated using Prism GraphPad software, version 9. […].
# (§3) Cytochrome P450 inhibition of a drug is a key factor in determining pharmacokinetic drug-drug interactions. The objective of this study was to evaluate the inhibition potential of G9a inhibitors on six (6) major human cytochrome P450 enzymes, including CYP1A2, CYP2C8, CYP2C9, CYP2C19, CYP2D6, and CYP3A4. Inhibition was determined by using a substrate cocktail and analyzing the rate of specific metabolites formation. The cytochrome P450 inhibition assay was developed using a cocktail consisting of six (6) probe substrates ethoxy-resorufin (CYP1A2), rosiglitazone (CYP2C8), diclofenac (CYP2C9), S-mephenytoin (CYP2C19), dextromethorphan (CYP2D6), and midazolam (CYP3A4). The cocktail was incubated in human liver microsome with NADPH regenerating system (NRS) in a shaking bath at 37±2° C. The formation of specific metabolites was monitored by LC/MS/MS. Test compound was added to the cocktail-liver microsome mixture at varying concentrations and its effect on cytochrome P450 activity was determined by analyzing the rate of specific metabolite formation. The percent inhibition was calculated and plotted with reference to the concentration, and the IC50 value for inhibition was derived by fitting the data with a using log(inhibitor) vs. normalized response with variable slope least squares fit by Graphpad Prism® software. […].
# CYP2C19 = target: T2, CYP2C19 (Homo sapiens, UniProt P33261); assay: CYP-direct inhibition, CYP2C19; assay type: in vitro ADME
# T2 construct: from tissue; host or cells: pooled human liver microsomes
# T2 sequence (P33261 whole entry): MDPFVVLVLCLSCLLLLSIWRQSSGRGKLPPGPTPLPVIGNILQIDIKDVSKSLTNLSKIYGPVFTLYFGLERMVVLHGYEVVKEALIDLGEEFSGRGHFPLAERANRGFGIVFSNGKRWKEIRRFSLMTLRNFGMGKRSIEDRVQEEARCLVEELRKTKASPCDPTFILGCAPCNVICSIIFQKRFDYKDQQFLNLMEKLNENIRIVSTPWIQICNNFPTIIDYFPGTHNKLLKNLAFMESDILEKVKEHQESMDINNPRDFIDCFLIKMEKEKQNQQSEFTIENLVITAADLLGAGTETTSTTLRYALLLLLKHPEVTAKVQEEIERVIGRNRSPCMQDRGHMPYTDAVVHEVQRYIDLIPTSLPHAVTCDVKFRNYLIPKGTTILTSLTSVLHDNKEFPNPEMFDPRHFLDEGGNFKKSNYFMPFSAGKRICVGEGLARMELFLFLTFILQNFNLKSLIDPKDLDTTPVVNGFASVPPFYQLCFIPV
# Protocol: as §1, §2, §3
# [1] = human liver microsome, substrate ethoxy-resorufin, read-out: IC50 CYP-1A2
IC50 (CYP1A2; [1]) [µM],IC50 (CYP2C19) [µM],SMILES,IC50 (CYP1A2) [µM]
> 100,> 100,"COc1cc2c(NC3CCOCC3)nc(N3CCOCC3)nc2cc1OCCCN1CCCC1 [Compound 195, 6-methoxy-2-morpholino-7-(3-(pyrrolidin-1-yl)propoxy)-N-(tetrahydro-2H-pyran-4-yl)quinazolin-4-amine]",
> 100,> 100,"COc1cc2c(NC3CCOCC3)nc(N3CCS(=O)(=O)CC3)nc2cc1OCCCN1CCCC1 [Compound 196, 4-(6-methoxy-7-(3-(pyrrolidin-1-yl)propoxy)-4-((tetrahydro-2H-pyran-4-yl)amino)quinazolin-2-yl)thiomorpholine 1,1-dioxide]",
> 100,> 100,"COc1cc2c(NC3CCN(C(C)C)CC3)nc(N3CCC3)nc2cc1OCCCN1CCCC1 [Compound 234, 2-(azetidin-1-yl)-N-(1-isopropylpiperidin-4-yl)-6-methoxy-7-(3-(pyrrolidin-1-yl)propoxy)quinazolin-4-amine]",
> 100,> 100,"COc1cc2c(NC3CCN(C(C)C)CC3)nc(C#N)nc2cc1OCCCN1CCCC1 [Compound 235, 4-((1-isopropylpiperidin-4-yl)amino)-6-methoxy-7-(3-(pyrrolidin-1-yl)propoxy)quinazoline-2-carbonitrile]",
> 100,> 100,"COc1cc2c(NC3CCOCC3)nc(N3CCN(C)CC3)nc2cc1OCCCN1CCCC1 [Compound 236, 6-methoxy-2-(4-methylpiperazin-1-yl)-7-(3-(pyrrolidin-1-yl)propoxy)-N-(tetrahydro-2H-pyran-4-yl)quinazolin-4-amine]",
> 100,> 100,"COc1cc2c(NC3CCOCC3)nc(N3CCCN(C)CC3)nc2cc1OCCCN1CCCC1 [Compound 237, 6-methoxy-2-(4-methyl-1,4-diazepan-1-yl)-7-(3-(pyrrolidin-1-yl)propoxy)-N-(tetrahydro-2H-pyran-4-yl)quinazolin-4-amine]",
> 100,> 100,"COc1cc2c(NC3CCS(=O)(=O)CC3)nc(N3CCC(F)(F)CC3)nc2cc1C#CCN1CCCC1 [Compound 248, 4-((2-(4,4-difluoropiperidin-1-yl)-6-methoxy-7-(3-(pyrrolidin-1-yl)prop-1-yn-1-yl)quinazolin-4-yl)amino)tetrahydro-2H-thiopyran 1,1-dioxide]",

SMILES,IC50 (CYP1A2; [1]) [µM],IC50 (CYP2C19) [µM],IC50 (CYP1A2) [µM]
"COc1cc2c(NC3CCN(C(C)C)CC3)nc(N3CCC(F)(F)CC3)nc2cc1OCCCN1CCCC1 [Compound 400, 2-(4,4-difluoropiperidin-1-yl)-N-(1-isopropylpiperidin-4-yl)-6-methoxy-7-(3-(pyrrolidin-1-yl)propoxy)quinazolin-4-amine, reference compound]",,> 100,> 100
